This is an account of results in ChEMBL document CHEMBL1128764, “Peptidyl aldehyde derivatives as potent and selective inhibitors of cathepsin L” (Bioorg Med Chem Lett, 1995).

Experiment [1] is described as follows: Compound was tested for its inhibitory activity against cathepsin L.
The target of experiment [2] is T1, Calpain-2 catalytic subunit (Homo sapiens, UniProt P17655).
T1 sequence (P17655 whole entry): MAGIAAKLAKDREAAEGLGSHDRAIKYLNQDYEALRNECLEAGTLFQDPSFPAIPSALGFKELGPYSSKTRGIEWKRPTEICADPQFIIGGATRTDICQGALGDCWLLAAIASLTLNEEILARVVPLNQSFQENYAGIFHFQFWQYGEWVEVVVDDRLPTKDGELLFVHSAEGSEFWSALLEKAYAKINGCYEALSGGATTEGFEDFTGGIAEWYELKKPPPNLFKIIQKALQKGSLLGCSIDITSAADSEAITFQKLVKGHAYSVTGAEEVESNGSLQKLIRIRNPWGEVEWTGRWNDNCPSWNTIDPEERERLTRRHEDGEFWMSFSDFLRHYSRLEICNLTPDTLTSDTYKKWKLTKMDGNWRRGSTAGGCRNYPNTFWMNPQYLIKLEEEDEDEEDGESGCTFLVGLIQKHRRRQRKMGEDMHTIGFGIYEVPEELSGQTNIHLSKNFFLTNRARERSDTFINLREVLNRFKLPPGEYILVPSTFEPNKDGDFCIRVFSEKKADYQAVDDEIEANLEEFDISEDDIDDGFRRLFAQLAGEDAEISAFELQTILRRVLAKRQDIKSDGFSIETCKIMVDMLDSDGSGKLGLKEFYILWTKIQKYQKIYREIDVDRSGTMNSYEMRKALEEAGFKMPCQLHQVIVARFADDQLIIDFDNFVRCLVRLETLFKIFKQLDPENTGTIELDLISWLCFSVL
The experiment in a line: Compound was tested for its inhibitory activity against calpain 2.

The target of experiment [3] is T2, Cathepsin B (Homo sapiens, UniProt P07858). Description: Compound was tested for its inhibitory activity against cathepsin B.
Experiment [4] concerns the target T2, Cathepsin B. The experiment in a line: Ratio of Inhibitory activity against cathepsin B/cathepsin L.
In experiment [5] the target is Chymotrypsinogen A (Bos taurus) (UniProt P00766). The experiment in a line: Compound was tested for its inhibitory activity against alpha-chymotrypsin at concentration less than 1000 ng/ml; no inhibition.
Experiment [6] concerns the target T1, Calpain-2 catalytic subunit. The experiment in a line: Compound was tested for its inhibitory activity against Calpain 2.

Active and inactive are the calls of the source. The rule behind the calls is not given here. Where a SMILES comes first, the peptide text is derived from it. The star is where a group is joined. Cbz = O=C(OCc1ccccc1)*

In general, IC50 refers to the concentration that inhibits the measured activity by half. High values mean weaker potency, low ones greater potency. For the molecule `CCCCOc1ccc(C[C@H](NC(=O)[C@H](Cc2ccccc2)NC(=O)OCc2ccccc2)C(=O)O)cc1`, the half-inhibitory concentration (IC50) in experiment [1] turned out to be 6.96 nM; in experiment [2], 79.6 nM; against Cathepsin B [3] it was 836 nM. Besides, on Cathepsin B [4], the Ratio was 120.
Turning to `C[C@H](NC(=O)[C@H](Cc1ccccc1)NC(=O)OCc1ccccc1)C(=O)O`, the inhibition entry in experiment [5] was “inactive”. Also, the figures for the IC50 (in experiment [1]; against Cathepsin B [3]) were 15.5 nM and 45.1 nM, respectively. For the same molecule, the Ratio on Cathepsin B [4] is 2.91.
For `CC(C)C[C@H](NC(=O)[C@H](Cc1ccccc1)NC(=O)OCc1ccccc1)C(=O)O` (Cbz-Phe-Leu-OH), the inhibition entry in experiment [5] is “inactive”. Further, the half-inhibitory concentration (IC50) is 0.78 nM in experiment [1] and 17.7 nM at Cathepsin B [3]. Also, at Cathepsin B [4], the Ratio stood at 22.7.
As to `O=C(N[C@@H](Cc1ccccc1)C(=O)N[C@@H](Cc1ccccc1)C(=O)O)OCc1ccccc1` (Cbz-Phe-Phe-OH), the inhibition result in experiment [5] is “inactive”. Moreover, the half-inhibitory concentration (IC50) in experiment [1] is 0.74 nM; in experiment [6], 104 nM; against Cathepsin B [3], 69.7 nM. In addition, the Ratio on Cathepsin B [4] was determined as 94.2.
As to `COc1ccc(C[C@H](NC(=O)[C@H](Cc2ccccc2)NC(=O)OCc2ccccc2)C(=O)O)cc1` (Cbz-Phe-Tyr(Me)-OH), in experiment [5], the inhibition entry is “inactive”. Moreover, the values for the IC50 (in experiment [1]; in experiment [2]; against Cathepsin B [3]) were 2.95 nM, 104 nM and 97.7 nM, respectively. The Ratio at Cathepsin B [4] stood at 33.1.
For `O=C(N[C@@H](Cc1ccccc1)C(=O)N[C@@H](Cc1ccc(O)cc1)C(=O)O)OCc1ccccc1` (Cbz-Phe-Tyr-OH) the same measures were “inactive”, 0.85 nM, 184 nM, 85.1 nM and 100.
`CC(=O)N[C@@H](CC(C)C)C(=O)N[C@@H](CC(C)C)C(=O)N[C@H](C=O)CCCNC(=N)N` [LEUPEPTIN]: in experiment [5], the inhibition result is “inactive”. The values for the IC50 (in experiment [1]; on Cathepsin B [3]) were 70.3 nM and 117 nM, respectively. The Ratio on Cathepsin B [4] came out at 1.66.
